Assay results reported in ChEMBL document CHEMBL5528049, “Discovery of (4-Pyrazolyl)-2-aminopyrimidines as Potent and Selective Inhibitors of Cyclin-Dependent Kinase 2” (J Med Chem, 2024).
≈ marks a conversion by molar mass, not a printed value.

Tests used:
[1] = target: Cyclin-dependent kinase 4/cyclin D1 (Homo sapiens, UniProt P11802); assay: Inhibition of N-terminal GST-tagged human CDK4 (4 to 303 residues)/N-terminal GST-tagged human Cyclin D1 (4 to 295 residues) expressed in Sf9 insect cells incubated for 60 mins in presence of ATP by HTRF assay
[2] = Solubility of compound in SGF by HPLC analysis
[3] = organism: Homo sapiens; assay: Selectivity index, ratio of IC50 for inhibition of N-terminal GST-tagged full length human CDK1 (1 to 297 residues)/human Cyclin B1 (1 to 433 residues) expressed in baculovirus infected Sf21 cells to IC50 for inhibition of N-terminal GST-tagged full-length human CDK2(1 to 298 residues) /FLAG-tagged human Cyclin E1 (1 to 410 residues) expressed in baculovirus-infected Sf21 cells
[4] = target: T1, Cyclin-dependent kinase 2 (Homo sapiens, UniProt P24941); assay: Inhibition of CDK2 in human whole blood spiked with CCNE1-amplified human COV318 cells assessed as reduction in retinoblastoma protein phosphorylation at S780 residue incubated overnight by HTRF microplate reader; type: cell-based
[5] = target: Cyclin-dependent kinase 2/cyclin E1 (Homo sapiens, UniProt P24941); assay: Inhibition of N-terminal GST-tagged full-length human CDK2(1 to 298 residues) /FLAG-tagged human Cyclin E1 (1 to 410 residues) expressed in baculovirus-infected Sf21 cells incubated for 60 mins in presence of ATP by HTRF assay
[6] = Intrinsic clearance in human liver microsomes at 1 uM measured upto 30 mins by LC/MS analysis; type: ADME, Microsome; conditions: read-out: CLH (converted)
[7] = target: CDK6/cyclin D3 (Homo sapiens, UniProt Q00534); assay: Inhibition of N-terminal GST-tagged human CDK6 (1 to 326 residues)/N-terminal 6-His fused human Cyclin D3 (1 to 292 residues) expressed in Sf9 insect cells incubated for 60 mins by HTRF assay
[8] = target: Cyclin-dependent kinase 1/cyclin B1 (Homo sapiens, UniProt P06493); assay: Inhibition of N-terminal GST-tagged full length human CDK1 (1 to 297 residues)/human Cyclin B1 (1 to 433 residues) expressed in baculovirus infected Sf21 cells incubated for 60 mins in presence of ATP by HTRF assay
[9] = target: Tyrosine-protein kinase JAK2 (Homo sapiens, UniProt O60674); assay: Inhibition of JAK2 (unknown origin) incubated for 90 mins in presence of ATP by fluorescence microplate reader
[10] = Volume of distribution at steady state in cynomolgus monkey at 0.5 mg/kg, iv administered as cassette dose and measured upto 24 hrs by LC-MS/MS analysis; type: ADME, organism-based, Macaca fascicularis; conditions: in vivo, read-out: Vdss
[11] = Hepatic blood flow in Sprague-Dawley rat at 0.5 mg/kg, iv administered as cassette dose and measured upto 24 hrs by LC-MS/MS analysis; type: ADME, organism-based; conditions: in vivo
[12] = Half-life in Sprague-Dawley rat at 0.5 mg/kg, iv administered as cassette dose and measured upto 24 hrs by LC-MS/MS analysis; type: ADME, organism-based; conditions: in vivo
[13] = AUC in Sprague-Dawley rat at 3 mg/kg, po administered as cassette dose and measured upto 24 hrs by LC-MS/MS analysis; type: ADME, organism-based; conditions: in vivo
[14] = Protein binding in human plasma assessed as free fraction incubated for 2 hrs by LC-MS/MS analysis; type: ADME, cell-free
[15] = Cmax in Sprague-Dawley rat at 3 mg/kg, po administered as cassette dose and measured upto 24 hrs by LC-MS/MS analysis; type: ADME, organism-based; conditions: in vivo
[16] = Hepatic blood flow in cynomolgus monkey at 0.5 mg/kg, iv administered as cassette dose and measured upto 24 hrs by LC-MS/MS analysis; type: ADME, organism-based, Macaca fascicularis; conditions: in vivo
[17] = Cmax in cynomolgus monkey at 1.5 mg/kg, po administered as cassette dose and measured upto 24 hrs by LC-MS/MS analysis; type: ADME, organism-based, Macaca fascicularis; conditions: in vivo
[18] = Oral bioavailability in cynomolgus monkey at 1.5 mg/kg administered as cassette dose and measured upto 24 hrs by LC-MS/MS analysis; type: ADME, organism-based, Macaca fascicularis; conditions: in vivo
[19] = Half-life in cynomolgus monkey at 0.5 mg/kg, iv administered as cassette dose and measured upto 24 hrs by LC-MS/MS analysis; type: ADME, organism-based, Macaca fascicularis; conditions: in vivo
[20] = Volume of distribution at steady state in Sprague-Dawley rat at 0.5 mg/kg, iv administered as cassette dose and measured upto 24 hrs by LC-MS/MS analysis; type: ADME, organism-based; conditions: in vivo, read-out: Vdss
[21] = Oral bioavailability in Sprague-Dawley rat at 3 mg/kg administered as cassette dose and measured upto 24 hrs by LC-MS/MS analysis; type: ADME, organism-based; conditions: in vivo
[22] = AUC in cynomolgus monkey at 1.5 mg/kg, po administered as cassette dose and measured upto 24 hrs by LC-MS/MS analysis; type: ADME, organism-based, Macaca fascicularis; conditions: in vivo
[23] = Apparent permeability from apical to basolateral side in human Caco-2 cells at 50 uM incubated for 120 mins by LCMS analysis
[24] = target: CDK7/Cyclin H/MNAT1 (Homo sapiens, UniProt P50613); assay: Inhibition of C-terminal 6-His tagged recombinant full-length human CDK7/recombinant full-length human Cyclin H/N-terminal GST-tagged recombinant full-length human MAT1 expressed in baculovirus infected Sf21 insect cells incubated for 60 mins in presence of ATP by HTRF assay
[25] = organism: Homo sapiens; assay: (§1) Selectivity index, ratio of IC50 for inhibition of N-terminal GST-tagged full length human CDK9 (1 to 372 residues)/His-tagged human Cyclin T1 (1 to 726 residues) expressed in baculovirus infected Sf21 insect cells to IC50 for inhibition of N-terminal GST-tagged full-length human CDK2(1 to 298 residues) /FLAG-tagged human Cyclin E1 (1 to 410 residues) expressed in baculovirus-infected Sf21 cells
[26] = target: T1, Cyclin-dependent kinase 2; assay: Inhibition of CDK2 in CCNE1-amplified human COV318 cells assessed as reduction in retinoblastoma protein phosphorylation at S780 residue incubated overnight by HTRF microplate reader; type: cell-based
[27] = organism: Homo sapiens; assay: as §1, with “GST-tagged” for “GST-tagged full length”, “CDK6” for “CDK9”, “326 residues)/N-terminal 6-His fused” for “372 residues)/His-tagged”, “D3” for “T1”, “292” for “726”, “Sf9” for “baculovirus infected Sf21”
[28] = target: CDK9/cyclin T1 (Homo sapiens, UniProt P50750); assay: Inhibition of N-terminal GST-tagged full length human CDK9 (1 to 372 residues)/His-tagged human Cyclin T1 (1 to 726 residues) expressed in baculovirus infected Sf21 insect cells incubated for 60 mins by HTRF assay
[29] = organism: Homo sapiens; assay: Selectivity index, ratio of IC50 for inhibition of N-terminal GST-tagged human CDK4 (4 to 303 residues)/N-terminal GST-tagged human Cyclin D1 (4 to 295 residues) expressed in Sf9 insect cells to IC50 for inhibition of N-terminal GST-tagged full-length human CDK2(1 to 298 residues) /FLAG-tagged human Cyclin E1 (1 to 410 residues) expressed in baculovirus-infected Sf21 cells
[30] = organism: Homo sapiens; assay: Selectivity index, ratio of IC50 for inhibition of C-terminal 6-His tagged recombinant full-length human CDK7/recombinant full-length human Cyclin H/N-terminal GST-tagged recombinant full-length human MAT1 expressed in baculovirus infected Sf21 insect cells to IC50 for inhibition of N-terminal …

Compound | IC50 [1] [nM] | solubility [2] [µg/mL] | IC50 [4] [nM] | IC50 [5] [nM] | CLint scaled at 1 µM [6] [mL/min/kg] | IC50 [7] [nM] | IC50 [8] [nM] | fraction unbound at 2 h [14] | Ratio IC50 [3] | other results
CS(=O)(=O)N1CCC(Nc2ncc(C(F)(F)F)c(-c3cnn(-c4ccccc4F)c3)n2)CC1 | 14 | 46 (≈ 94.9 µM) | 5110 |  | < 8.33 | 31 |  |  |  | 
CNCc1ccc(-n2cc(-c3nc(NC4CCN(S(C)(=O)=O)CC4)ncc3C#N)cn2)c(Cl)c1 |  |  |  |  | 10 |  |  | 0.33 |  | Vd [10]: 4.4 L/kg; QH [11]: 36%; half-life [12]: 3.8 h; AUC at 24 h [13]: 3.5 µM·h; Cmax [15]: 412 nM; QH [16]: 26%; Cmax [17]: 93 nM; bioavailability [18]: 20%; half-life [19]: 6 h; Vd [20]: 5.7 L/kg; bioavailability [21]: 69%; AUC at 24 h [22]: 0.923 µM·h
N#Cc1cnc(NC2CCN(S(=O)(=O)c3ccccn3)CC2)nc1-c1cnn(CC(F)(F)F)c1 |  | < 1 |  |  | 13.3 |  |  | 0.035 |  | Papp A→B at 2 h, 50 µM [23]: 18 ×10⁻⁶ cm/s
CS(=O)(=O)N1CCC(Nc2ncc(C(F)(F)F)c(-c3cnn(CC(F)(F)F)c3)n2)CC1 | 11 | 3 (≈ 6.35 µM) | 709 | 1.8 | < 8.33 | 22 | 205 |  | 110 | 
CNCc1ccc(-n2cc(-c3nc(NC4CCN(S(C)(=O)=O)CC4)ncc3C(F)(F)F)cn2)c(Cl)c1 | 11 | 94 (≈ 173 µM) | 263 | 0.53 | 11.7 | 58 | 43 | 0.078 | 81 | IC50 [24]: 33 nM; Ratio IC50 [25]: 5900; IC50 [26]: 25 nM; Ratio IC50 [27]: 109; IC50 [28]: 3130 nM; Papp A→B at 2 h, 50 µM [23]: 3.3 ×10⁻⁶ cm/s; Ratio IC50 [29]: 21; Ratio IC50 [30]: 62

Further lines, with some results ahead:

IC50 [1] [nM] | solubility [2] [µg/mL] | IC50 [4] [nM] | IC50 [5] [nM] | CLint scaled at 1 µM [6] [mL/min/kg] | IC50 [7] [nM] | IC50 [8] [nM] | fraction unbound at 2 h [14] | Compound | Ratio IC50 [3] | other results
20 | > 400 | 708 | 6.1 | 11.7 | 153 | 174 |  | CN1CCC(n2cc(-c3nc(NC4CCN(S(C)(=O)=O)CC4)ncc3C(F)(F)F)cn2)CC1 | 29 | 
 |  |  | 3.2 |  |  | 407 |  | CS(=O)(=O)N1CCC(Nc2ncc(C(F)(F)F)c(-c3cnn(C4CCOCC4)c3)n2)CC1 | 130 | IC50 [9]: > 10000 nM
3.2 | 11 (≈ 23.3 µM) | 5050 | 2 | 18.3 | 10 | 257 |  | CS(=O)(=O)N1CCC(Nc2ncc(C(F)(F)F)c(-c3cnn(C4CCCCC4)c3)n2)CC1 | 130 | 
